Test results published in patent publication US8871264B2, “Immediate release tablet formulations” (AstraZeneca AB, priority 2009, dated 2014).
Where two headings read alike, the source gives them in different places.

Key:
[1] = tested on: type II diabetic patients; details: for adjusted mean change in HbA1c from baseline: after 24 weeks; for adjusted mean change in HbA1c from baseline / adjusted mean change in FPG from baseline at Week 24: type 2 diabetes patients; for change in total body weight: at 24 weeks
Procedure: The data represent findings from a randomized, double-blind, placebo-controlled study of 546 individuals with type 2 diabetes whose HbA1c was greater than or equal to 7.0 percent and less than or equal to 10 percent at baseline. […] Patients in all arms also received metformin (greater than or equal to 1500 mg/d). […] Exploratory endpoints included body weight decrease of greater than or equal to 5 percent or greater than or equal to 10 percent as well as body weight percent change from baseline.

[2] = phosphate buffer pH 6.8, 37° C., 75 rpm, n=6; for Dissoln. % 10 min: tablets of Example 12, 10 min; for Dissoln. % 20 min: tablets of Example 12, 20 min; for Dissoln. % 30 min: tablets of Example 12, 30 min; for Dissoln. % 45 min: tablets of Example 12, 45 min; for Dissoln. % 75 min: tablets of Example 12, 75 min; for Dissolution % 10 min: tablets of Example 13, 10 min; for Dissolution % 20 min: tablets of Example 13, 20 min; for Dissolution % 30 min: tablets of Example 13, 30 min; for Dissolution % 45 min: tablets of Example 13, 45 min; for Dissoln % 75 min: tablets of Example 13, 75 min
[3] = combination of metformin and dapagliflozin, 24 weeks, compared to placebo plus metformin
[4] = dapagliflozin 2.5 mg plus metformin
[5] = dapagliflozin 5 mg plus metformin
[6] = dapagliflozin 10 mg plus metformin

Dissoln. % 10 min [2] [%] | Dissoln. % 20 min [2] [%] | Dissoln. % 30 min [2] [%] | Dissoln. % 45 min [2] [%] | Dissoln. % 75 min [2] [%] | Dissolution % 10 min [2] [%] | Dissolution % 20 min [2] [%] | Dissolution % 30 min [2] [%] | Dissolution % 45 min [2] [%] | Dissoln % 75 min [2] [%] | Structure (SMILES) | other results
38 | 78 | 96 | 99 | 99 | 37 | 77 | 95 | 97 | 97 | CCOc1ccc(Cc2cc([C@@H]3O[C@H](CO)[C@@H](O)[C@H](O)[C@H]3O)ccc2Cl)cc1 [Dapagliflozin, (2S,3R,4R,5S,6R)-2-(4-chloro-3-(4-ethoxybenzyl)phenyl)-6-(hydroxymethyl)tetrahydro-2H-pyran-3,4,5-triol] | fasting plasma glucose (FPG) levels [1, 3]: reduced; glycosylated hemoglobin levels (HbA1c) [1, 3]: reduced; mean reductions in body weight ([1]; compared to individuals taking placebo, 24 weeks): statistically greater mean reductions; patients achieving weight losses greater than or equal to 5 percent ([1]; compared to placebo, exploratory endpoint, 24 weeks): more patients; adjusted mean change in HbA1c from baseline [1, 4]: −0.67%; change in total body weight [1, 4]: -2.21 kg; adjusted mean change in FPG from baseline at Week 24 [1, 4]: -17.8 mg/dL; adjusted mean change in HbA1c from baseline [1, 5]: −0.70%; change in total body weight [1, 5]: -3.04 kg; adjusted mean change in HbA1c from baseline [1, 6]: −0.84%; change in total body weight [1, 6]: -2.86 kg; adjusted mean change in FPG from baseline at Week 24 [1, 6]: −23.5 mg/dL/dl
41 | 80 | 97 | 100 | 100 | 41 | 81 | 98 | 100 | 100 | CN(C)C(=N)N=C(N)N [Metformin] | –
